What was measured:
[1] = molecular target: WRN (BV08), human Werner helicase (Uniprot Q14191, amino acids 517-1235 with L1074F point mutation) (Homo sapiens (Human), UniProt Q14191, L1074F); test: WRN (BV08) ADP-Glo assay; type: biochemical; conditions: class symbols A-E, read-out: ADP-Glo_hWRN_IC50
[2] = tested on: p21 induction in HCT116 cells; test: p21 induction in HCT116 cells; type: cell-based; conditions: Homo sapiens, HCT-116, 24 h, HCT116 cells, 24 h compound incubation; read-out: P21_EC50
How it was run: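 HCT116 cells, 2,000/well, treated 24 h at 37 °C with 11-point compound dilutions in duplicate. Fixed, then immunostained for p21 and GAPDH and read by near-IR imaging at 800/700 nm. Normalized to DMSO (low) and reference WRN inhibitor (high) controls; EC50 from non-linear regression.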

Sequence of WRN (BV08), human Werner helicase (Uniprot Q14191, amino acids 517-1235 with L1074F point mutation) (Q14191 other isoform, or with tags, fused parts or gaps L1074F (already in the parent)): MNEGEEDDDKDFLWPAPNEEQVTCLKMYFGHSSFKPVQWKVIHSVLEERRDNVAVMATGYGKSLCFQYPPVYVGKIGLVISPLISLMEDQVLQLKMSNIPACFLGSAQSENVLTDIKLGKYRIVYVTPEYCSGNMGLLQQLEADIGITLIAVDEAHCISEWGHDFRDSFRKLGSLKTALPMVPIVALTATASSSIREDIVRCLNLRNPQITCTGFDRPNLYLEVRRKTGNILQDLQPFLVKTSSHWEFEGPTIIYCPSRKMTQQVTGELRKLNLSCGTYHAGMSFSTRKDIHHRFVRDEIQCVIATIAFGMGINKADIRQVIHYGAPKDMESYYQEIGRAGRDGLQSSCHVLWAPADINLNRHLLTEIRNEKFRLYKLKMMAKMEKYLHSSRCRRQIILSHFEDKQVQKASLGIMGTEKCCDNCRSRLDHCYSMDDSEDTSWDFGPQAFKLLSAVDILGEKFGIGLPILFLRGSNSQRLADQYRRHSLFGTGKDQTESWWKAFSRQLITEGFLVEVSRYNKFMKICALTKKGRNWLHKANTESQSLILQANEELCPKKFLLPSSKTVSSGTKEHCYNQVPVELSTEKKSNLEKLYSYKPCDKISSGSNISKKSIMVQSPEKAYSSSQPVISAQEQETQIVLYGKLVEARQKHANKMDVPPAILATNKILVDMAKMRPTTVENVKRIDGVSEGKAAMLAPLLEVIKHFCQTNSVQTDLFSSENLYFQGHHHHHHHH

IC50 [1] [nM]	EC50 [2] [nM]	Structure (SMILES)
5 to 50	2000 to 5000	CCc1c(N2CCN(C(=O)c3ncnc(C)c3O)CC2)c(=O)c2nc(C=C3CCOCC3)cnc2n1CC(=O)Nc1ccc(C(F)(F)F)cc1Cl [I-36, N-(2-chloro-4-(trifluoromethyl)phenyl)-2-(6-ethyl-7-(4-(5-hydroxy-6-methylpyrimidine-4-carbonyl)piperazin-1-yl)-8-oxo-2-((tetrahydro-4H-pyran-4-ylidene)methyl)pyrido[2,3-b]pyrazin-5(8H)-yl)acetamide]
≤ 5	< 500	CCc1c(N2CCN(C(=O)c3ncnc(C)c3O)CC2)c(=O)c2nc(C=C(C)C)cnc2n1CC(=O)Nc1ccc(C(F)(F)F)cc1Cl [I-37, N-(2-chloro-4-(trifluoromethyl)phenyl)-2-(6-ethyl-7-(4-(5-hydroxy-6-methylpyrimidine-4-carbonyl)piperazin-1-yl)-2-(2-methylprop-1-en-1-yl)-8-oxopyrido[2,3-b]pyrazin-5(8H)-yl)acetamide]
≤ 5	< 500	CCc1c(N2CCN(C(=O)c3ncnc(C)c3O)CC2)c(=O)c2nc(C=C3CCC3)cnc2n1CC(=O)Nc1ccc(C(F)(F)F)cc1Cl [I-38, N-(2-chloro-4-(trifluoromethyl)phenyl)-2-(2-(cyclobutylidenemethyl)-6-ethyl-7-(4-(5-hydroxy-6-methylpyrimidine-4-carbonyl)piperazin-1-yl)-8-oxopyrido[2,3-b]pyrazin-5(8H)-yl)acetamide]
100 to 500	> 5000	CCc1c(N2CCN(C(=O)c3ncnc(C)c3O)CC2)c(=O)c2nc(CCO)cnc2n1CC(=O)Nc1ccc(C(F)(F)F)cc1Cl [I-41, N-(2-chloro-4-(trifluoromethyl)phenyl)-2-(6-ethyl-7-(4-(5-hydroxy-6-methylpyrimidine-4-carbonyl)piperazin-1-yl)-2-(2-hydroxyethyl)-8-oxopyrido[2,3-b]pyrazin-5(8H)-yl)acetamide]
5 to 50	2000 to 5000	CCc1c(N2CCN(C(=O)c3ncnc(C)c3O)CC2)c(=O)c2nc(N3CCCCC3)cnc2n1CC(=O)Nc1ccc(C(F)(F)F)cc1Cl [I-42, N-(2-chloro-4-(trifluoromethyl)phenyl)-2-(6-ethyl-7-(4-(5-hydroxy-6-methylpyrimidine-4-carbonyl)piperazin-1-yl)-8-oxo-2-(piperidin-1-yl)pyrido[2,3-b]pyrazin-5(8H)-yl)acetamide]
100 to 500	> 5000	CCc1c(N2CCN(C(=O)c3ncnc(C)c3O)CC2)c(=O)c2ncc(Cl)nc2n1CC(=O)Nc1ccc(C(F)(F)F)cc1Cl [I-43, N-(2-chloro-4-(trifluoromethyl)phenyl)-2-(3-chloro-6-ethyl-7-(4-(5-hydroxy-6-methylpyrimidine-4-carbonyl)piperazin-1-yl)-8-oxopyrido[2,3-b]pyrazin-5(8H)-yl)acetamide]
5 to 50	> 5000	CCc1c(N2CCN(C(=O)c3ncnc(C)c3O)CC2)c(=O)c2nc(N3CC(C)(O)C3)cnc2n1CC(=O)Nc1ccc(C(F)(F)F)cc1Cl [I-44, N-(2-chloro-4-(trifluoromethyl)phenyl)-2-(6-ethyl-2-(3-hydroxy-3-methylazetidin-1-yl)-7-(4-(5-hydroxy-6-methylpyrimidine-4-carbonyl)piperazin-1-yl)-8-oxopyrido[2,3-b]pyrazin-5(8H)-yl)acetamide]
5 to 50	> 5000	CCc1c(N2CCN(C(=O)c3ncnc(C)c3O)CC2)c(=O)c2nc(N3CC(O)C3)cnc2n1CC(=O)Nc1ccc(C(F)(F)F)cc1Cl [I-45, N-(2-chloro-4-(trifluoromethyl)phenyl)-2-(6-ethyl-7-(4-(5-hydroxy-6-methylpyrimidine-4-carbonyl)piperazin-1-yl)-2-(3-hydroxyazetidin-1-yl)-8-oxopyrido[2,3-b]pyrazin-5(8H)-yl)acetamide]
5 to 50	> 5000	CCc1c(N2CCN(C(=O)c3ncnc(C)c3O)CC2)c(=O)c2nccnc2n1CC(=O)Nc1ccc(C(F)(F)F)cc1Cl [I-46, N-(2-chloro-4-(trifluoromethyl)phenyl)-2-(6-ethyl-7-(4-(5-hydroxy-6-methylpyrimidine-4-carbonyl)piperazin-1-yl)-8-oxopyrido[2,3-b]pyrazin-5(8H)-yl)acetamide]
5 to 50	> 5000	CCc1c(N2CCN(C(=O)c3ncnc(C)c3O)CC2)c(=O)c2nc(N3CCC(C)(O)C3)cnc2n1CC(=O)Nc1ccc(C(F)(F)F)cc1Cl (stereo not drawn) [I-47, N-(2-chloro-4-(trifluoromethyl)phenyl)-2-(6-ethyl-2-(3-hydroxy-3-methylpyrrolidin-1-yl)-7-(4-(5-hydroxy-6-methylpyrimidine-4-carbonyl)piperazin-1-yl)-8-oxopyrido[2,3-b]pyrazin-5(8H)-yl)acetamide]
100 to 500	> 5000	CCc1c(N2CCN(C(=O)c3ncnc(C)c3O)CC2)c(=O)c2nc(C(=O)N(C)C)cnc2n1CC(=O)Nc1ccc(C(F)(F)F)cc1Cl [I-48, 5-(2-((2-chloro-4-(trifluoromethyl)phenyl)amino)-2-oxoethyl)-6-ethyl-7-(4-(5-hydroxy-6-methylpyrimidine-4-carbonyl)piperazin-1-yl)-N,N-dimethyl-8-oxo-5,8-dihydropyrido[2,3-b]pyrazine-2-carboxamide]
50 to 100	> 5000	CCc1c(N2CCN(C(=O)c3ncnc(C)c3O)CC2)c(=O)c2nc(CN3CCOCC3)cnc2n1CC(=O)Nc1ccc(C(F)(F)F)cc1Cl [I-49, N-(2-chloro-4-(trifluoromethyl)phenyl)-2-(6-ethyl-7-(4-(5-hydroxy-6-methylpyrimidine-4-carbonyl)piperazin-1-yl)-2-(morpholinomethyl)-8-oxopyrido[2,3-b]pyrazin-5(8H)-yl)acetamide]
50 to 100	> 5000	CCc1c(N2CCN(C(=O)c3ncnc(C)c3O)CC2)c(=O)c2nc(C(N)=O)cnc2n1CC(=O)Nc1ccc(C(F)(F)F)cc1Cl [I-50, 5-(2-((2-chloro-4-(trifluoromethyl)phenyl)amino)-2-oxoethyl)-6-ethyl-7-(4-(5-hydroxy-6-methylpyrimidine-4-carbonyl)piperazin-1-yl)-8-oxo-5,8-dihydropyrido[2,3-b]pyrazine-2-carboxamide]
5 to 50	< 500	CCc1c(N2CCN(C(=O)c3c(O)ccnc3OC)CC2)c(=O)c2nc(N(C)C)cnc2n1CC(=O)Nc1ccc(C(F)(F)F)cc1Cl [I-51, N-(2-chloro-4-(trifluoromethyl)phenyl)-2-(2-(dimethylamino)-6-ethyl-7-(4-(4-hydroxy-2-methoxynicotinoyl)piperazin-1-yl)-8-oxopyrido[2,3-b]pyrazin-5(8H)-yl)acetamide]
5 to 50	> 5000	CCc1c(N2CCN(C(=O)c3ncnc(C)c3O)CC2)c(=O)c2nc(N3CCOCC3)cnc2n1CC(=O)Nc1ccc(C(F)(F)F)cc1Cl [I-52, N-(2-chloro-4-(trifluoromethyl)phenyl)-2-(6-ethyl-7-(4-(5-hydroxy-6-methylpyrimidine-4-carbonyl)piperazin-1-yl)-2-morpholino-8-oxopyrido[2,3-b]pyrazin-5(8H)-yl)acetamide]
5 to 50	500 to 2000	CCc1c(N2CCN(C(=O)c3ncnc(C)c3O)CC2)c(=O)c2nc(N3CCC3)cnc2n1CC(=O)Nc1ccc(C(F)(F)F)cc1Cl [I-53, 2-(2-(azetidin-1-yl)-6-ethyl-7-(4-(5-hydroxy-6-methylpyrimidine-4-carbonyl)piperazin-1-yl)-8-oxopyrido[2,3-b]pyrazin-5(8H)-yl)-N-(2-chloro-4-(trifluoromethyl)phenyl)acetamide]
100 to 500	> 5000	CCc1c(N2CCN(C(=O)c3ncnc(C)c3O)CC2)c(=O)c2nc(C(=O)NC)cnc2n1CC(=O)Nc1ccc(C(F)(F)F)cc1Cl [I-54, 5-(2-((2-chloro-4-(trifluoromethyl)phenyl)amino)-2-oxoethyl)-6-ethyl-7-(4-(5-hydroxy-6-methylpyrimidine-4-carbonyl)piperazin-1-yl)-N-methyl-8-oxo-5,8-dihydropyrido[2,3-b]pyrazine-2-carboxamide]
5 to 50	500 to 2000	CCc1c(N2CCN(C(=O)c3ncnc(C)c3O)CC2)c(=O)c2nc(/C=C/COC)cnc2n1CC(=O)Nc1ccc(C(F)(F)F)cc1Cl [I-55, (E)-N-(2-chloro-4-(trifluoromethyl)phenyl)-2-(6-ethyl-7-(4-(5-hydroxy-6-methylpyrimidine-4-carbonyl)piperazin-1-yl)-2-(3-methoxyprop-1-en-1-yl)-8-oxopyrido[2,3-b]pyrazin-5(8H)-yl)acetamide]
5 to 50	> 5000	CCc1c(N2CCN(C(=O)c3ncnc(C)c3O)CC2)c(=O)c2nc(N3CC[C@@H](O)C3)cnc2n1CC(=O)Nc1ccc(C(F)(F)F)cc1Cl [I-56, (R)-N-(2-chloro-4-(trifluoromethyl)phenyl)-2-(6-ethyl-7-(4-(5-hydroxy-6-methylpyrimidine-4-carbonyl)piperazin-1-yl)-2-(3-hydroxypyrrolidin-1-yl)-8-oxopyrido[2,3-b]pyrazin-5(8H)-yl)acetamide]
5 to 50	500 to 2000	CCc1c(N2CCN(C(=O)c3ncnc(C)c3O)[C@H](C)C2)c(=O)c2nc(N(C)C)cnc2n1CC(=O)Nc1ccc(C(F)(F)F)cc1Cl [I-57, (R)-N-(2-chloro-4-(trifluoromethyl)phenyl)-2-(2-(dimethylamino)-6-ethyl-7-(4-(5-hydroxy-6-methylpyrimidine-4-carbonyl)-3-methylpiperazin-1-yl)-8-oxopyrido[2,3-b]pyrazin-5(8H)-yl)acetamide]
5 to 50	< 500	CCc1c(N2CCN(C(=O)c3ncnc(C)c3O)CC2)c(=O)c2nc(N(C)C3CC3)cnc2n1CC(=O)Nc1ccc(C(F)(F)F)cc1Cl [I-58, N-(2-chloro-4-(trifluoromethyl)phenyl)-2-(2-(cyclopropyl(methyl)amino)-6-ethyl-7-(4-(5-hydroxy-6-methylpyrimidine-4-carbonyl)piperazin-1-yl)-8-oxopyrido[2,3-b]pyrazin-5(8H)-yl)acetamide]
